Our source for the IC50 values is paper PMC3871175 (Nature Communications, 2012).

As a reminder, the IC50 is the point on the concentration scale where inhibition reaches its midpoint. Read a high IC50 as a need for much substance.

In this assay the target is ABCA4 (Bos taurus, UniProt F1MWM0). Format: biochemical.
ABCA4, sequence (F1MWM0 whole entry): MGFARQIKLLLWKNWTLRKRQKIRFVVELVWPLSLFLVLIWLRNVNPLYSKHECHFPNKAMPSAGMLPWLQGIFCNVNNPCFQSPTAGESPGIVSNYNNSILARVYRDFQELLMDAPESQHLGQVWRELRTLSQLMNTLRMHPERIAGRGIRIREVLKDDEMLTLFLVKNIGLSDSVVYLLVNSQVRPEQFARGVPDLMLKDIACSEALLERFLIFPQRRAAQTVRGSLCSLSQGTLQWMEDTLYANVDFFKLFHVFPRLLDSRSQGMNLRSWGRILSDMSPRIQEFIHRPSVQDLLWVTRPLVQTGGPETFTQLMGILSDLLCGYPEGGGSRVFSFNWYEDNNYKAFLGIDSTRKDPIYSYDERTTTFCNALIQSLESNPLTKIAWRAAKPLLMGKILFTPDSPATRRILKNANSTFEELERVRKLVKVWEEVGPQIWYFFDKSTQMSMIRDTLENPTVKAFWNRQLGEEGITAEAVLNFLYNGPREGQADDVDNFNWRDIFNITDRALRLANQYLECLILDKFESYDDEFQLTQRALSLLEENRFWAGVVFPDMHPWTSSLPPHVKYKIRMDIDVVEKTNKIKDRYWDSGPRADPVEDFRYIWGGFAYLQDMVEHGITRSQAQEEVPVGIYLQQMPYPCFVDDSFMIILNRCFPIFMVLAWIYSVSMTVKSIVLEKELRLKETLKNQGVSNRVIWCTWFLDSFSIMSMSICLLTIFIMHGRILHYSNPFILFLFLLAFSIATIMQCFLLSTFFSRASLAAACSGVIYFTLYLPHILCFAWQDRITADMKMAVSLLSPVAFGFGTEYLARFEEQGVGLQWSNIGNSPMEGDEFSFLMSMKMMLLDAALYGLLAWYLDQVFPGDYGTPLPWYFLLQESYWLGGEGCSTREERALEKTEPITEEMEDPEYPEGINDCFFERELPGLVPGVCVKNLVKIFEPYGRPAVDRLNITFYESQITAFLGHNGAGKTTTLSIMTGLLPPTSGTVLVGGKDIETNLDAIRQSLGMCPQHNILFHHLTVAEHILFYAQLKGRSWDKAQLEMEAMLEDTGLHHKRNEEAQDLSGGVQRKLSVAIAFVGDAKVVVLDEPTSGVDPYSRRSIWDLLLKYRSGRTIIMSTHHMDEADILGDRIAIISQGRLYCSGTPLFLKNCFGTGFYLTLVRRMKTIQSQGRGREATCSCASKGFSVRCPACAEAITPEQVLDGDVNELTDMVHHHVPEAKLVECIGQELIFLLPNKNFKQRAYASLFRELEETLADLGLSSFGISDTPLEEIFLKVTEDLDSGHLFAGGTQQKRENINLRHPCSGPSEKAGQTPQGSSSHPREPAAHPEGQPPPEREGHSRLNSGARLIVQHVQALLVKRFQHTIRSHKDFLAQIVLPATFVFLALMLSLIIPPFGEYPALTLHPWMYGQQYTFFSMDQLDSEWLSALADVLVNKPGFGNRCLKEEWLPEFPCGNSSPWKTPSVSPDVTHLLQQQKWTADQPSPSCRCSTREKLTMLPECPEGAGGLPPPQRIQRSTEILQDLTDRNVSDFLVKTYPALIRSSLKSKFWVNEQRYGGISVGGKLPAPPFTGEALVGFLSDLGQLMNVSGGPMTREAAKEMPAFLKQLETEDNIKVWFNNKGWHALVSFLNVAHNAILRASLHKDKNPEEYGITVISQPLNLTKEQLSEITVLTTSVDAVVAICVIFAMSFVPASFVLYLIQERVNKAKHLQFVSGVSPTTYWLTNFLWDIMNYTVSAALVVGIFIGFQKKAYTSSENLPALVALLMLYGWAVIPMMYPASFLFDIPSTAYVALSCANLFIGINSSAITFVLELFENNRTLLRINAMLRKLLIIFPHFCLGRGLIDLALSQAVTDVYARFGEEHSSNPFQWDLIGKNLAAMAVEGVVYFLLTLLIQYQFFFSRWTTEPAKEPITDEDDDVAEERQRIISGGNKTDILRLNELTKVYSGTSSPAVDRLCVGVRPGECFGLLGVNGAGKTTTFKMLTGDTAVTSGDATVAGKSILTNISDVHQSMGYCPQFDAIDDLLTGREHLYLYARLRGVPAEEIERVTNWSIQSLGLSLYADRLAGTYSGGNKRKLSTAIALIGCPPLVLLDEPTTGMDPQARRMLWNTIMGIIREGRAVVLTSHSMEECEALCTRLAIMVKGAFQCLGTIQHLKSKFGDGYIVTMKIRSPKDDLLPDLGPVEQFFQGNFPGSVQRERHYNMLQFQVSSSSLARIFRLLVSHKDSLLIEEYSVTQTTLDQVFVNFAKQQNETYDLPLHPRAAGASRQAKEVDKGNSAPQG

Regarding N-retinyl-PE, the half-maximal inhibitory concentration (IC50) worked out at 9 µM.
